Results as given in patent publication US11180479B2 (HAPLOGEN GmbH, priority 2017, dated 2021).
pEC50, pIC50: −log10 of the molar value.

Key:
[1] = system: picornaviruses (CVB1, HRV-A2, HRV-A23, EV-68); assay: Anti-picornavirus cytopathic effect (CPE) reduction assay on HeLa H1 cells; type: cell-based; conditions: 48 h, category from averaging EC50 values of four picornaviruses (CVB1, HRV-A2, HRV-A23, EV68), second symbol in parentheses
In short: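 HeLa H1 cells pre-treated 2 h with serial compound dilutions in 2% FBS DMEM, then infected at an MOI giving full CPE in 2 days; after 48 h, viability by CellTiterBlue fluorescence (560/590 nm) normalised to infected and uninfected vehicle controls; EC50 by non-linear regression, averaged over the four viruses.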

PLA2G16 = molecular target: T1, PLA2G16 (Homo sapiens, UniProt P53816); assay: Enzyme activity assay for PLA2G16 (Red/Green BODIPY PC-A2 fluorescence); type: biochemical; conditions: His-tagged PLA2G16, 4 min pre-incubation, compound 2 nM to 50 μM; first symbol in parentheses
T1 construct: Hexa-His (N); made in house; host or cells: E. coli BL21(DE3)
T1 sequence (P53816 1-162): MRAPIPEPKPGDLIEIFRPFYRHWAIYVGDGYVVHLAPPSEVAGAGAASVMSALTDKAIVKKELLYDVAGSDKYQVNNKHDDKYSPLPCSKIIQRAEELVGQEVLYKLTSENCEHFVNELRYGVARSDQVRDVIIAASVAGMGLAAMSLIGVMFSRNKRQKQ
In short: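 N-His human PLA2G16 was expressed in E. coli and Ni-NTA purified. Enzyme in 5 mM glutathione was preincubated 4 min with compound (2 nM–50 μM final), then Red/Green BODIPY PC-A2 in DOPC/DOPG/cholesterol vesicles was added (50 mM Tris pH 8.5, 100 mM NaCl). Fluorescence increase (ex 480/em 530 nm) over 10 min gave activity; IC50 came from nonlinear regression.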

Row | SMILES | pEC50 [1] | pIC50 (PLA2G16)
1 | O=C(NCC1CC1)C(=O)[C@H]1CN(c2cncnc2)C(=O)[C@@H]1c1ccccc1 (racemic) [FP-64, Rac-N-(cyclopropylmethyl)-2-oxo-2-[(3R,4S)-5-oxo-4-phenyl-1-(pyrimidin-5-yl)pyrrolidin-3-yl]acetamide] | 5.00 to 6.00 | > 6.00
2 | O=C(NC1CC1)C(=O)[C@H]1CN(c2cncnc2)C(=O)[C@@H]1Cc1ccccc1 (single isomer, unassigned) [FP-89] | > 6.00 | > 6.00
3 | CC(F)(F)CNC(=O)C(=O)[C@H]1CNC(=O)[C@@H]1C1CCCCC1 (racemic) [FP-12, Rac-2-[(3R,4R)-4-cyclohexyl-5-oxopyrrolidin-3-yl]-N-(2,2-difluoropropyl)-2-oxoacetamide] | > 6.00 | > 6.00
4 | O=C(NCC1CC(F)(F)C1)C(=O)[C@H]1CNC(=O)[C@@H]1c1ccccc1 (racemic) [FP-23, Rac-N-[(3,3-difluorocyclobutyl)methyl]-2-oxo-2-[(3R,4S)-5-oxo-4-phenylpyrrolidin-3-yl]acetamide] | > 6.00 | > 6.00
5 | Cc1cc(CN2C[C@H](C(=O)C(=O)NC3CC3)[C@@H](Cc3ccccc3)C2=O)no1 (racemic) [FP-41, Rac-2-[(3R,4R)-4-benzyl-1-[(5-methyl-1,2-oxazol-3-yl)methyl]-5-oxopyrrolidin-3-yl]-N-cyclopropyl-2-oxoacetamide] | > 6.00 | > 6.00

Other lines, results leading:

Row | pEC50 [1] | pIC50 (PLA2G16) | SMILES
6 | > 6.00 | > 6.00 | O=C(NC1CC1)C(=O)[C@H]1CN(c2cccc(OCc3ccccc3)n2)C(=O)[C@@H]1Cc1ccccc1 (racemic) [FP-69, Rac-2-[(3R,4R)-4-benzyl-1-[6-(benzyloxy)pyridin-2-yl]-5-oxopyrrolidin-3-yl]-N-cyclopropyl-2-oxoacetamide]
7 | > 6.00 | > 6.00 | CC(F)(F)CNC(=O)C(=O)[C@H]1CNC(=O)[C@@H]1c1ccccc1 (single isomer, unassigned) [FP-88]
8 | > 6.00 | > 6.00 | O=C(NCC1CC1)C(=O)[C@H]1CNC(=O)[C@@H]1Cc1ccccc1 (racemic) [FP-1, Rac-2-[(3R,4R)-4-benzyl-5-oxopyrrolidin-3-yl]-N-(cyclopropylmethyl)-2-oxoacetamide]
9 | > 6.00 | > 6.00 | CC(F)(F)CNC(=O)C(=O)[C@H]1CN(c2cccc(=O)[nH]2)C(=O)[C@@H]1Cc1ccccc1 (racemic) [FP-74, Rac-2-[(3R,4R)-4-benzyl-5-oxo-1-(6-oxo-1,6-dihydropyridin-2-yl)pyrrolidin-3-yl]-N-(2,2-difluoropropyl)-2-oxoacetamide]
10 | > 6.00 | > 6.00 | O=C(NC1CC1)C(=O)[C@H]1CN(c2ccc(Cl)nn2)C(=O)[C@@H]1Cc1ccccc1 (racemic) [FP-62, Rac-2-[(3R,4R)-4-benzyl-1-(6-chloropyridazin-3-yl)-5-oxopyrrolidin-3-yl]-N-cyclopropyl-2-oxoacetamide]
